Assay results from patent US12391768B2, “Antibodies to ticagrelor and methods of use” (MEDIMMUNE LIMITED, priority 2014, dated 2025).
Like-named read-outs stand apart in the source and are kept apart here.

What was measured:
TICA0072 Fab = test: HTRF competition binding selectivity assay, TICA0072 His-Fab; parameters: species or system human
Experimental: (§1) Total Binding control wells were set up which contained all of the assay components above except that 5 ul assay buffer was added in place of the test selectivity compound addition. Negative Binding control wells were set up which contained all of the assay components included in the Total Binding control wells except that 5ul assay buffer was added in place of the His-Fab addition. Test compound serial titrations were either ½ or ⅓ depending on the particular experiment and top final assay compound concentrations were optimized on a compound specific basis. The concentration of biotinylated ticagrelor and His-Fab was optimized on a Fab specific basis in separate experiments. For the four Fabs investigated at the end of the lead isolation phase (TICA0010, TICA0049, TICA0053 and TICA0072) the final assay reagent concentrations used are set out in Table 1 below:
For the two Fabs investigated at the end of the lead optimization phase (TICA0162 and TICA0212) the final assay reagent concentrations used were 5nM biotinylated ticagrelor and 1 nM His Fab in both cases. […] In order to enable subsequent normalization of data to correct for any such vehicle related effects parallel titrations of DMSO alone were included in most experiments in which the final assay DMSO concentrations mirrored those of the test compound serial dilutions. At the end of the set up procedure that assay was incubated for 3hrs at RT before being read on an Envision plate reader using a standard read protocol.
The negative ratio value used in the calculation of % Delta F was derived from the Negative Binding control wells. % Delta F values were then used to calculate % Specific Binding values according to the equation below: Specific Binding (%)={(Sample Delta F−Negative Binding Delta F)/(Total Binding Delta F−Negative Binding Delta F)}×100
For standard calculations of % Specific Binding Total Binding Delta F was taken from Total Binding control wells which contained all of the aforementioned components of the assay but without inclusion of any competing test compound.
In those experiments where DMSO normalization was applied DMSO normalised % Specific Binding was calculated essentially according to the equation above except that in this case Total Binding Delta F was taken from wells containing all of the components in the Total Binding control wells as well as DMSO at a concentration equivalent to that in the relevant sample well.
In a second series of experiments further selectivity data was generated for TICA0049 and TICA0072 Fabs in which a subset of four of the twelve compounds listed in FIG. 4 were retested along with ticagrelor, TAM and TIM and several adenosine related compounds. Here, in a refinement to the earlier investigations in Table 2, experiments were designed in order to enable normalisation of percent specific binding values to correct for any non-specific vehicle related effects due to DMSO. Example plotted data from this second series of experiments is shown in FIG. 5A-F along with tabulated IC50 values in Table 3.

[1] = system: ADP-induced platelet aggregation in whole blood; test: Ex vivo whole blood impedance aggregometry after i.v. dosing of ticagrelor treated mice; format: in vivo; details: for mean ADP-induced aggregation response: n=4
Experimental: The speed of onset and the extent of TICA0212/MEDI2452 mediated reversal of ticagrelor mediated inhibition of ADP-induced platelet aggregation in whole blood (impedance aggregometry) was determined ex vivo after intravenous (i.v.) dosing of ticagrelor in mice. Mice were given ticagrelor i.v. as a bolus of 1200 μg/kg. over 5 minutes, followed by a 15 min continuous infusion of 30 μg/kg/min. After termination of the ticagrelor infusion, when ticagrelor plasma exposure was measured to be in average 1.4 μM, mice were given an i.v. bolus of 250 mg/kg TICA0212/MEDI2452. At 5, 30, and 60 min post TICA0212/MEDI2452 administration mice were sacrificed and blood samples were collected. In this study the ADP-induced aggregation response was measured for 6 min and data expressed as the mean area under the curve of aggregation unit (AU) recorded over time (AU*min).
In carrying out the impedance aggregometry assay, mice were sacrificed and blood samples were collected into 7 μM hirudin. Blood (175 μL) was added to pre-heated […] (37° C., 175 μL) in the Multiplate mini test cells and mixed for 3 min before addition of ADP, 12 μL, to a final concentration of 6.5 μM. The disposable Multiplate mini test cells contain a stir bar and have two separate pair of electrodes that are immersed into the blood sample.
When agonist (ADP) is added and shear is induced by stirring, platelets will start to adhere and aggregate onto the electrodes.
(§2) Mice were pre-treated with a continuous infusion of ticagrelor, 300 μg/kg/min or vehicle for 20 minutes. After stop of infusion, t=0, a bolus dose of TICA0212/MEDI2452 (600 mg/kg) or vehicle (histidine sucrose buffer) was given over 45 seconds and at t=30 minutes bleeding was induced by cutting 5mm from the tip of the tail. The tip of the tail was rinsed with water (2 mL/min) and the blood and water mixture was collected in a small chamber, where a stirrer mixed the fluid to enhance haemolysis and establish a homogeneous solution. Light transmission, at 525 nm, was recorded for 30 minutes when terminal blood samples were collected from the abdominal aorta for platelet aggregation. Light transmittance was transformed to absorbance and used to calculate blood loss as area under the absorbance curve (AUC, absorbance*s) and total bleeding time (BT, s) by plotting absorbance over time. All transmittance below 95% was defined as bleeding. Samples for platelet aggregation and total and free plasma exposure were also collected at end of ticagrelor infusion (t=0) and at time of tail cut (t=30 minutes).

mouse tail bleeding = test: Prophylactic mouse tail bleeding study; format: in vivo, mice
Experimental: as §2
Studies were approved by the ethical committee for animal research at the University of Göteborg, Sweden. Mice were anaesthetised with isofluran gas (Forenc®, Abbot Scandinavia AB, Sweden). A catheter was inserted in the left jugular vein for administration of vehicle or drug. The body temperature was maintained at 38° C. by external heating.
To translate the effect of TICA0212/MED12452 on platelet aggregation to a potential effect on bleeding, a prophylactic mouse tail bleeding study was performed. Ticagrelor was infused to a mean total ticagrelor and TAM plasma concentration of 7.6 and 0.3 μM, respectively, to provide a significant drug-dependant bleeding window. Immediately after stopping the ticagrelor infusion TICA0212/MEDI2452 was dosed as a single bolus of 600 mg/kg over 30 seconds. […] Bleeding was initiated by a tail cut and monitored for 30 minutes. In vehicle treated mice the mean total ticagrelor and TAM plasma concentration at time of tail cut were 2.4 and 0.6 μM. […] In this prophylactic setting TICA0212/MED12452 normalized ticagrelor dependent bleeding.

[2] = human, in vivo; cited from earlier work
TICA0212 Fab = test: HTRF competition binding selectivity assay, TICA0212 His-Fab; parameters: species or system human; details: Table 7, DMSO normalised; 5 nM biotinylated ticagrelor, 1 nM His Fab; read-out: IC50 (uM) for inhibition of biotinylated ticagrelor binding to TICA0212 Fab
Experimental: as §1
For the two Fabs investigated at the end of the lead optimization phase (TICA0162 and TICA0212) the final assay reagent concentrations used were 5nM biotinylated ticagrelor and 1 nM His Fab in both cases. […] At the end of the set up procedure that assay was incubated for 3hrs at RT before being read on an Envision plate reader using a standard read protocol. […]

[3] = 5 min after ticagrelor infusion (1200 μg/kg bolus + 30 μg/kg/min) and bolus (PBS or 250 mg/kg Fab i.v.)
[4] = 30 min after ticagrelor infusion (1200 μg/kg bolus + 30 μg/kg/min) and bolus (PBS or 250 mg/kg Fab i.v.)
[5] = 60 min after ticagrelor infusion (1200 μg/kg bolus + 30 μg/kg/min) and bolus (PBS or 250 mg/kg Fab i.v.)
[6] = ticagrelor versus vehicle, p<0.05
[7] = 600 mg/kg bolus 30 min before tail cut, n=12

| IC50 (TICA0072 Fab; first series (Table 2), not DMSO normalised, read-out: IC50 (uM) for inhibition of biotinylated ticagrelor binding to TICA0072 his-Fab) | IC50 (TICA0072 Fab; second series (Table 3), DMSO normalised, read-out: IC50 in competition binding selectivity studies, TICA0072) | bleeding time over 30 minutes, enhancement (mouse tail bleeding; [6]) | total blood loss over 30 minutes, enhancement (mouse tail bleeding; [6]) | IC50 (TICA0212 Fab) | Molecule | mean ADP-induced aggregation response [1, 3] | mean ADP-induced aggregation response [1, 4] | mean ADP-induced aggregation response [1, 5] | circulating half-life [2] | ADP-induced aggregation ([1]; Example 12, 30 minutes after single bolus of 600 mg/kg, ticagrelor 300 μg/kg/min for 20 min) | bleeding time relative ticagrelor alone (mouse tail bleeding; [7]) | blood loss relative ticagrelor alone (mouse tail bleeding; [7]) |
| --- | --- | --- | --- | --- | --- | --- | --- | --- | --- | --- | --- | --- |
| 0.113 µM | 0.356 µM | ~1.6 fold | about 3.8 fold | 0.035 µM | CCCSc1nc(N[C@@H]2C[C@H]2c2ccc(F)c(F)c2)c2nnn([C@@H]3C[C@H](OCCO)[C@@H](O)[C@H]3O)c2n1 [Ticagrelor, (1S,2S,3R,5S)-3-[7-{[(1R,2S)-2-(3,4-difluorophenyl)cyclopropyl]amino}-5-(propylthio)-3H-[1,2,3]triazolo[4,5-d]pyrimidin-3-yl]-5-(2-hydroxyethoxy)cyclopentane-1,2-diol] | 2 AU*min | 6 AU*min | 14 AU*min | 8 h | – | – | – |
| – | – | – | – | – | TICA0212: combination of TICA0162 and TICA0152; VH SEQ ID NO:72, VL SEQ ID NO:77 (antibody, listed as Homo sapiens, V domains shown) VH: QVQLQESGAEVKKPGSSVRVSCKASGGTFDSYSIHWVRQAPGQGLEWMGGIIPAFGTLSSAQDFQARVTISADKSTSTAYMELSGLRSEDTAVYYCARGSFDYYFWSASHPPNDALAIWGQGTLVTVSS VL: QSVVTQPPSVSAAPGQKVTISCSGSNSDIGNNYVSWYQQLPGTAPKLLIYDNNKRPSGIPDRFSGSKSGTSATLAITGLQAGDEADYYCGTWLYDRAVGLFGGGTKVTVL | 147 AU*min | 448 AU*min | 413 AU*min | – | fully normalized | significantly (p<0.05) reversed | significantly (p<0.05) reversed |
